# Experimental data taken from patent publication US12133855B2, “Lipid-like nanocomplexes and uses thereof” (Trustees of Tufts College, priority 2018, dated 2024).
# Assays:
# HeLa-DsRed cells [1] = test: Cre-mediated gene recombination (DsRed expression) after (−30)GFP-Cre/LNP delivery; assay type: cell-based; settings: 24 h; 25 nM (−30)GFP-Cre; lipidoid 3.3 mg/L
# Method: (§1) The final (−30)GFP-Cre protein concentration is 25 nM, and lipidoid concentration is 3.3 mg/L. For the gene recombination functional study, HeLa-DsRed cells were treated with same conditions and the red fluorescence emission from DsRed was analyzed by flow cytometry 24 h after delivery.
# The top 12 of LNPs identified through intracellular delivery screening experiments were further tested for gene recombination using HeLa-DsRed model cells. The expression of DsRed from Cre protein mediated gene recombination was analyzed after 24 h of co-incubation with free (−30)GFP-Cre protein and protein loaded LNPs. […] Most of the test LNPs, on the other hand, efficiently delivered (−30)GFP-Cre protein and induced gene recombination, with 14-46% of the cells positive for DsRed.
# HeLa-DsRed cells [2] = test: Intracellular delivery of (−30)GFP-Cre/LNP (GFP-positive cells); assay type: cell-based; settings: flow cytometry, 6 h; 25 nM (−30)GFP-Cre; lipidoid 3.3 mg/L
# Method: as §1
# A Cre recombinase protein fused to a negatively supercharged GFP variant ((−30)GFP-Cre) was used as a model cargo protein. The (−30)GFP-Cre protein was able to complex with cationic LNPs through electrostatic attraction and other types supramolecular interactions. The cellular uptake of LNPs could be determined by direct analysis of intracellular GFP fluorescent intensity as reported in Wang. HeLa-DsRed cells were used in this study, which expressed red fluorescent DsRed upon Cre-mediated recombination to facilitate the functional study of delivered proteins in the following study.
# The (−30)GFP-Cre protein loaded LNPs (GFP-Cre/LNPs) were prepared at first by simply mixing precalculated amount of aqueous solution of LNPs and protein at ambient conditions. For the intracellular delivery, after incubation with GFP-Cre/LNPs nanoparticles for 6 h, the GFP-positive cells were observed using fluorescence microscopy, harvested and counted by flow cytometry. […] The intracellular (−30)GFP-Cre protein delivery efficiencies were further quantified by flow cytometry.
# HeLa cells [3] = test: Internalization of Nile red loaded nanoparticles (NR+ cells); assay type: cell-based; settings: 8 h of exposure
# Method: (§2) The internalization kinetics and efficiencies of OCholB LNPs were then studied using NR loaded LNPs and HeLa cells. […] Next, all of the NR delivery efficiencies of eight OCholB LNPs were determined after 8 h of exposure. […] Representative fluorescent images of NR/LNPs (NR/75-OCholB, NR/76-OCholB and NR/77-OCholB) treated HeLa cells are shown in FIG. 12D, from which it is easily observed that NR was delivered into the cells and mainly distributed in cytoplasm, by OCholB LNPs. Next, the internalization of negatively charged hydrophilic fluorescent dye, calcein, was studied. […] Next, the use of OCholB LNPs for the intracellular delivery of macromolecular cargo was explored, using fluorescent recombinant (−30)GFP-Cre protein and HeLa-DsRed cells as the model system. […] Delivery efficiency was tested at a range of (−30)GFP-Cre protein concentrations (25, 50 and 100 nM), with a consistent lipid/protein ratio (i.e., delivery with the final lipid concentration of 1.7, 3.3, and 6.6 μg mL^−1 respectively). 33.2%, 43.8% and 74% of GFP positive (GFP^+) cells were recorded for (−30)GFP-Cre/Lpf2k treated cells with the concentration of (−30)GFP-Cre 25 nM, 50 nM and 100 nM, respectively. […] The typical flow cytometry profiles of naked (−30)GFP-Cre protein and (−30)GFP-Cre loaded nanoparticles ((−30)GFP-Cre/75-OCholB, (−30)GFP-Cre/76-OCholB, (−30)GFP-Cre/77-OCholB and (−30)GFP-Cre/Lpf2k) treated HeLa-DsRed cells were shown in and FIG. 12H ([lipidoid]=6.6 μg mL^−1 and [(−30)GFP-Cre]=100 nM), which is consistent with the statistical results shown in FIG. 12G. Furthermore, the representative fluorescent images from the protein and protein/nanoparticle treated HeLa-DsRed cells are also shown in FIG. 12I.
# HeLa cells [4] = test: GFP mRNA delivery (GFP+ cells); assay type: cell-based; settings: LNP/mRNA=10/1; [mRNA]=0.86 μg mL^−1; 24 h exposure
# Text: Messenger RNA delivery has great potentials for cancer therapy, protein replacement therapy and neurological disorder treatments.^42 The intracellular delivery of mRNA using OCholB LNPs was studied using GFP mRNA and different cell lines (HeLa, B16F10, HEK-293, NIH/3T3 and Jurkat). The weight ratio of LNP/mRNA was optimized at first using HeLa cells. […] The weight ratio of LNP/mRNA=10/1 was then chose for the following mRNA delivery studies. […] Then the intracellular delivery efficiencies of all fully substituted OCholB LNPs were tested against HeLa cells, and Lpf2k and naked GFP mRNA were used as controls (LNP/mRNA=10/1; [mRNA]=0.86 μg mL^−1; 24 h exposure). […] As to the OCholB LNPs, 75-OCholB (62.0% of GFP^+ cells), 76-OCholB (79.8%), 77-OCholB (73.5%), 78-OCholB (67.1%), 80-OCholB (55.6%), 81-OCholB (51.6%) and 304-OCholB (52.1%) are all determined to be effective. Typical fluorescent images of mRNA/LNPs (mRNA/75-OCholB, mRNA/76-OCholB and mRNA/77-OCholB) treated HeLa cells are shown in FIG. 14C. Comparing to untreated HeLa cells, strong green fluorescent signals were recoded from nanoparticles incubated cells, which is consistent with the flow cytometry data as shown in FIG. 14D. Meanwhile, both 87-OCholB (6.1%) and 90-OCholB (2.5%) are found to be inefficient for GFP mRNA delivery into HeLa cells, which is consistent with the internalization studies using NR (FIG. 12C) and (−30)GFP-Cre protein (FIG. 12F) as the fluorescent reporters.
# [5] = Thiol-triggered size variation of OCholB LNPs (DTT, cysteine; DLS); assay type: physicochemical; settings: 10 mM DTT, 24 h
# Text: The thiol-trigged degradation and dissociation of the OCholB LNPs were studied by time-dependent DLS measurements and TEM observation. […] The disruption of the vesicle structure is considered to be resulted from the thiol-exchange and disulfide bond cleavage reactions of OCholB lipidoids. We next investigated whether the thiol-containing molecules (e.g. albumin, cysteine, homocysteine, cysteinylglycine, etc.) in the serum may induce the structural disintegration of these disulfide bond-containing LNPs. The stabilities of LNPs in the presence of 20 μM of L-cysteine (Cys), which mimics the free thiols on the small- and macromolecules presented in the serum, were examined. […] While the degrees of size changes vary between lipidoids with different amine head groups, all lipidoids were more responsive to DTT (modeling intracellular conditions) than to Cysteine (modeling conditions in the blood serum).
# HeLa-DsRed cells [6] = assay type: cell-based; settings: (−30)GFP-Cre 25, 50 and 100 nM
# Method: as §2
# HeLa-DsRed cells [7] = test: Genome editing efficiency of (−30)GFP-Cre/OCholB LNPs (DsRed+ cells); assay type: cell-based; settings: (−30)GFP-Cre 25, 50 and 100 nM
# Text: In this context, the internalization mechanism of the (−30)GFP-Cre/LNPs complexes was studied at first, by introducing different endocytosis inhibitors, i.e., sucrose (clathrin-mediated endocytosis inhibitor), methyl-β-cyclodextrin (M-β-CD, cholesterol-depleting agent), dynasore (dynamin II inhibitor) and nystatin (caveolin-mediated endocytosis inhibitor), following our previously reported procedures. […] Comparing to other combinatorial library studies, it is clear that even loaded with same cargoes and tested against same cell line, different lipidoids with different chemical structures could be internalized through very distinct pathways. Next, the genome-editing efficiencies of (−30)GFP-Cre/LNPs were determined by flow cytometry after 24 h of incubation (with 8 h of (−30)GFP-Cre/LNPs complex exposure). Three different concentrations of protein/lipidoid complexes (25 nM/1.7 μg mL^−1, 50 nM/3.4 μg mL^−1, and 100 nM/6.6 μg mL^−1) were tested for each lipidoid nanoparticle. […] For example, the DsRed^+ cells were recorded as 10.5%/24.9%/88.9%, 13.5%/55.4%/88.8%, and 27.7%/47.8%/94.7% for (−30)GFP-Cre loaded 75-OCholB, 76-OCholB and 77-OCholB, respectively, at the protein concentration of 25, 50 and 100 nM. […] Then, the cytotoxicity profiles of (−30)GFP-Cre/LNPs, (−30)GFP-Cre/Lpf2k and naked (−30)GFP-Cre at different concentrations against HeLa-DsRed cells (8 h of exposure; (−30)GFP-Cre/LNPs=25 nM/1.7 μg mL^−1, 50 nM/3.4 μg mL^−1, and 100 nM/6.6 μg mL^−1) are measured using MTT assay after 24 h of incubation. […] For (−30)GFP-Cre/75-OCholB treated cells, the viabilities were determined to be 95.5%, 91.8% and 83.1%, at the protein concentration of 25, 50 and 100 nM, respectively; the numbers for (−30)GFP-Cre/76-OCholB and (−30)GFP-Cre/77-OCholB are 97.8%/98.2%/97.2 and 100.9%/96.6%/98.6%. […] Meanwhile, the morphology changes of HeLa-DsRed cell treated with different nanoparticle formulations were studied and the results are shown in FIG. 15E. […] Samples found in upper left quadrant are non-toxic and inefficient for delivery; samples in lower left quadrant are toxic and inefficient; samples in lower right quadrant are efficient but toxic; samples in upper right quadrant are non-toxic and efficient, which would be top candidates for further study. It is clear that Lpf2k (shown in dotted purple circle) at high concentration is relatively efficient for genome editing, while also toxic to the target cells. On the other hand, most of the (−30)GFP-Cre loaded OCholB LNPs are almost non-toxic when compared to (−30)GFP-Cre/Lpf2k, similar to naked (−30)GFP-Cre protein. 87-OCholB, 90-OCholB and 304-OCholB (shown in dotted dark blue circle) are less efficient for genome-editing; while high genome editing efficacy and excellent tolerability were achieved by using 75-OCholB, 76-OCholB and 77-OCholB (shown in dotted green circle).
smiles,measurement,setting,value
CCCCCCCCCCCCCCSCCOC(=O)CCN(CCC(=O)OCCSCCCCCCCCCCCCCC)CCC1CCCN1C (stereo not drawn) [Lipidoid 77-O17S],cells positive for DsRed (protein transfection efficiency),HeLa-DsRed cells [1],38.6%
CCCCCCCCCCCCCC[Se]CCOC(=O)CCN(CCC(=O)OCC[Se]CCCCCCCCCCCCCC)CCC1CCCN1C (stereo not drawn) [Lipidoid 77-O17Se],GFP-positive cells,HeLa-DsRed cells [2],37%
same,cells positive for DsRed (protein transfection efficiency),HeLa-DsRed cells [1],31.0%
CCCCCCCCCCCCCC[Se]CCOC(=O)CCN(CCC(=O)OCC[Se]CCCCCCCCCCCCCC)CCN(C)C [Lipidoid 78-O17Se],cells positive for DsRed (protein transfection efficiency),HeLa-DsRed cells [1],37.8%
CCCCCCCCCCCCCCSCCOC(=O)CCN(CCCN(C)C)CCC(=O)OCCSCCCCCCCCCCCCCC [Lipidoid 80-O17S],cells positive for DsRed (protein transfection efficiency),HeLa-DsRed cells [1],45.6%
CC(C)CCCC(C)C1CCC2C3CC=C4CC(OC(=O)NCCSSCCOC(=O)CCN(CCCN(CCO)CCO)CCC(=O)OCCSSCCNC(=O)OC5CCC6(C)C(=CCC7C6CCC6(C)C(C(C)CCCC(C)C)CCC76)C5)CCC4(C)C3CCC12C (stereo not drawn) [Lipidoid 87-OCholB],NR^+ cells,HeLa cells [3],"lowest transfection efficacy, comparable to the untreated control group"
same,GFP^+ cells,HeLa cells [4],6.1%
same,increase in averaged hydrodynamic diameter,[5],210.3%
same,"(−30)GFP-Cre delivery efficiency (GFP^+ cells), overall",HeLa-DsRed cells [6],lowest delivery efficiencies
same,"genome editing efficacy (DsRed^+ cells), overall",HeLa-DsRed cells [7],less efficient at delivery
CC(C)CCCC(C)C1CCC2C3CC=C4CC(OC(=O)NCCSSCCOC(=O)CCN(CCC(=O)OCCSSCCNC(=O)OC5CCC6(C)C(=CCC7C6CCC6(C)C(C(C)CCCC(C)C)CCC76)C5)CCN5CCOCC5)CCC4(C)C3CCC12C (stereo not drawn) [Lipidoid 90-OCholB],NR^+ cells,HeLa cells [3],12.9%
same,GFP^+ cells,HeLa cells [4],2.5%
same,increase in averaged hydrodynamic diameter,[5],179.5%
same,"(−30)GFP-Cre delivery efficiency (GFP^+ cells), overall",HeLa-DsRed cells [6],lowest delivery efficiencies
same,"genome editing efficacy (DsRed^+ cells), overall",HeLa-DsRed cells [7],less efficient at delivery
